Target: CD73 (Homo sapiens (Human), UniProt P21589)
Test: Biochemical Assay (CD73 inhibition, AMP hydrolysis, Malachite Green readout)
Details: CD73 0.3208 nM, AMP 15 μM, Tris-HCl pH 7.4, Malachite Green absorbance
Description: Example A1: Biochemical Assay
Assay Reaction Conditions
• Assay Volume: 70 μl • Reaction Volume: 50 μl • CD73: 0.3208 nM • AMP: 15 μM • Assay Buffer: 2 5 mM Tris-HCL, pH 7.4, 0.01% Brij-35, 0.01% BSA, 5 mM MgCl2 Assay Procedure:
Made dose titration of testing compounds in assay buffer, 10 points ½ log titrations in duplicates starting at 100 μM.
Added 25 μl of CD73 to each well for a final concentration of 320 pM.
Incubated at RT for 15 min.
Added 25 μl of AMP to each well for a final concentration of 15 μM.
Incubated at RT for 10 min.
Added 10 μl of Malachite Green Reagent A, incubate at RT for 10 min.
Added 10 μl of Malachite Green Reagent B, incubate at RT for 45 min. […]
The ability of the compounds disclosed herein to inhibit CD73 activity was quantified and the respective IC50 values were determined. Table 1 provides the biochemical IC50 values of compounds disclosed herein.

CD73, sequence (P21589 27-574): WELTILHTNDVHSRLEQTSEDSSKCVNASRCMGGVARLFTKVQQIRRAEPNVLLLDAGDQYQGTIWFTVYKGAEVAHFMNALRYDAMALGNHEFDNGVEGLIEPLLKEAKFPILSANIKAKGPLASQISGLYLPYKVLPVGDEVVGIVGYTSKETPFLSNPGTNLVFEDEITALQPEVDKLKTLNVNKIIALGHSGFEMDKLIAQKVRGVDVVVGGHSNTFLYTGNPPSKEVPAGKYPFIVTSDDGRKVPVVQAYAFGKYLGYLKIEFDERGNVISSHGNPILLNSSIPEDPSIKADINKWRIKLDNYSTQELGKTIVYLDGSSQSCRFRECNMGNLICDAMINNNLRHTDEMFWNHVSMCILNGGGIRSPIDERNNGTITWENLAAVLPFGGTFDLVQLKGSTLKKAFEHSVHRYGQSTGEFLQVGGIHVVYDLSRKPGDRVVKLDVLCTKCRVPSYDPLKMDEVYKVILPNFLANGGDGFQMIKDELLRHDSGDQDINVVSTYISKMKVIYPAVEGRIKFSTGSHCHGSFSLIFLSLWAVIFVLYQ

| SMILES | IC50 [nM] |
| --- | --- |
| O=P(O)(O)COC[C@H]1O[C@@H](n2ncc3c(OCc4cccc(Cl)c4)nc(Cl)nc32)[C@H](O)[C@@H]1O [Example 65, ((((2R,3S,4R,5R)-5-(6-chloro-4-((3-chlorobenzyl)oxy)-1H-pyrazolo[3,4-d]pyrimidin-1-yl)-3,4-dihydroxytetrahydrofuran-2-yl)methoxy)methyl)phosphonic acid] | > 1000 |
| O=P(O)(O)CS(=O)(=O)C[C@H]1O[C@@H](n2nnc3c(NCc4ccc(F)cc4)nc(Cl)nc32)[C@H](O)[C@@H]1O [Example 119] | ≤ 500 |
| CN(C[C@H]1O[C@@H](n2ncc3c(NC4CCCC4)nc(Cl)nc32)[C@H](O)[C@@H]1O)C(=O)CP(=O)(O)O [Example 109, (2-((((2R,3S,4R,5R)-5-(6-chloro-4-(cyclopentylamino)-1H-pyrazolo[3,4-d]pyrimidin-1-yl)-3,4-dihydroxytetrahydrofuran-2-yl)methyl)(methyl)amino)-2-oxoethyl)phosphonic acid] | ≤ 500 |
| CN(Cc1ccccc1)c1nc(Cl)nc2c1cnn2[C@@H]1O[C@H](COCCP(=O)(O)O)[C@@H](O)[C@H]1O [Example 5, (2-(((2R,3S,4R,5R)-5-(4-(Benzyl(methyl)amino)-6-chloro-1H-pyrazolo[3,4-d]pyrimidin-1-yl)-3,4-dihydroxytetrahydrofuran-2-yl)methoxy)ethyl)phosphonic acid] | > 1000 |
| O=P(O)(O)CS(=O)(=O)C[C@H]1O[C@@H](n2nnc3c(NCc4ccccc4Cl)nc(Cl)nc32)[C@H](O)[C@@H]1O [Example 118, (((((2S,3S,4R,5R)-5-(5-chloro-7-((2-chlorobenzyl)amino)-3H[1,2,3]triazolo[4,5-d]pyrimidin-3-yl)-3,4-dihydroxytetrahydrofuran-2-yl)methyl)sulfonyl)methyl)phosphonic acid] | ≤ 500 |
| C[C@H](Nc1nc(Cl)nc2c1nnn2[C@@H]1O[C@H](CS(=O)(=O)CP(=O)(O)O)[C@@H](O)[C@H]1O)c1ccc(F)cc1 [Example 114] | ≤ 500 |
| O=P(O)(O)COC[C@H]1O[C@@H](n2nnc3c(N[C@H]4CCc5ccccc54)nc(Cl)nc32)[C@H](O)[C@@H]1O [Example 12, ((((2R,3S,4R,5R)-5-(5-chloro-7-(((S)-2,3-dihydro-1H-inden-1-yl)amino)-3H-[1,2,3]triazolo[4,5-d]pyrimidin-3-yl)-3,4-dihydroxytetrahydrofuran-2-yl)methoxy)methyl)phosphonic acid] | ≤ 500 |
| CC1(CNc2nc(Cl)nc3c2cnn3[C@@H]2O[C@H](COCP(=O)(O)O)[C@@H](O)[C@H]2O)CC1 [Example 96, ((((2R,3S,4R,5R)-5-(6-chloro-4-(((1-methylcyclopropyl)methyl)amino)-1H-pyrazolo[3,4-d]pyrimidin-1-yl)-3,4-dihydroxytetrahydrofuran-2-yl)methoxy)methyl)phosphonic acid] | ≤ 500 |
| N#Cc1nc(NCc2cccc(Cl)c2)c2cnn([C@@H]3O[C@H](COCP(=O)(O)O)[C@@H](O)[C@H]3O)c2n1 [Example 18, ((((2R,3S,4R,5R)-5-(4-((3-Chlorobenzyl)amino)-6-cyano-1H-pyrazolo[3,4-d]pyrimidin-1-yl)-3,4-dihydroxytetrahydrofuran-2-yl)methoxy)methyl)phosphonic acid] | ≤ 500 |
| C[C@H]1CCC[C@H]1Nc1nc(Cl)nc2c1cnn2[C@@H]1O[C@H](CS(=O)(=O)CP(=O)(O)O)[C@@H](O)[C@H]1O [Example 134, (((((2S,3S,4R,5R)-5-(6-chloro-4-(((1R,2S)-2-methylcyclopentyl)amino)-1H-pyrazolo[3,4-d]pyrimidin-1-yl)-3,4-dihydroxytetrahydrofuran-2-yl)methyl)sulfonyl)methyl)phosphonic acid] | ≤ 500 |
| CN(c1nc(Cl)nc2c1cnn2[C@@H]1O[C@H](COCP(=O)(O)O)[C@@H](O)[C@H]1O)[C@H]1CCc2ccccc21 [Example 31, ((((2R,3S,4R,5R)-5-(6-chloro-4-(((S)-2,3-dihydro-1H-inden-1-yl)(methyl)amino)-1H-pyrazolo[3,4-d]pyrimidin-1-yl)-3,4-dihydroxytetrahydrofuran-2-yl)methoxy)methyl)phosphonic acid] | ≤ 500 |
| CN(Cc1ccccc1)c1nc(Cl)nc2c1cnn2[C@H]1O[C@H](COCCP(=O)(O)O)[C@@H](O)[C@H]1O [Example 6, (2-(((2R,3S,4R,5S)-5-(4-(Benzyl(methyl)amino)-6-chloro-1H-pyrazolo[3,4-d]pyrimidin-1-yl)-3,4-dihydroxytetrahydrofuran-2-yl)methoxy)ethyl)phosphonic acid] | > 1000 |
| O=P(O)(O)CSC[C@H]1O[C@@H](n2ncc3c(NCc4ccccc4Cl)nc(Cl)nc32)[C@H](O)[C@@H]1O [Example 13, (((((2S,3S,4R,5R)-5-(6-Chloro-4-((2-chlorobenzyl)amino)-1H-pyrazolo[3,4-d]pyrimidin-1-yl)-3,4-dihydroxytetrahydrofuran-2-yl)methyl)thio)methyl)phosphonic acid] | ≤ 500 |
| CN(Cc1ccccc1Cl)c1nc(Cl)nc2c1cnn2[C@@H]1O[C@H](COCP(=O)(O)O)[C@@H](O)[C@H]1O [Example 64, ((((2R,3S,4R,5R)-5-(6-chloro-4-((2-chlorobenzyl)(methyl)amino)-1H-pyrazolo[3,4-d]pyrimidin-1-yl)-3,4-dihydroxytetrahydrofuran-2-yl)methoxy)methyl)phosphonic acid] | 500 to 1000 |
| Cc1cc2c(NCC3CC3)nc(Cl)nc2n1[C@@H]1O[C@H](COCP(=O)(O)O)[C@@H](O)[C@H]1O [Example 97, ((((2R,3S,4R,5R)-5-(2-chloro-4-((cyclopropylmethyl)amino)-6-methyl-7H-pyrrolo[2,3-d]pyrimidin-7-yl)-3,4-dihydroxytetrahydrofuran-2-yl)methoxy)methyl)phosphonic acid] | > 1000 |
| O=P(O)(O)COC[C@H]1O[C@@H](n2ncc3c(NC[C@H]4CCOC4)nc(Cl)nc32)[C@H](O)[C@@H]1O [Example 45, ((((2R,3S,4R,5R)-5-(6-chloro-4-((((R)-tetrahydrofuran-3-yl)methyl)amino)-1H-pyrazolo[3,4-d]pyrimidin-1-yl)-3,4-dihydroxytetrahydrofuran-2-yl)methoxy)methyl)phosphonic acid] | ≤ 500 |
| C[C@H](Nc1nc(Cl)nc2c1cnn2[C@@H]1O[C@H](COCP(=O)(O)O)[C@@H](O)[C@H]1O)c1ccccc1Cl [Example 33, ((((2R,3S,4R,5R)-5-(6-chloro-4-(((S)-1-(2-chlorophenyl)ethyl)amino)-1H-pyrazolo[3,4-d]pyrimidin-1-yl)-3,4-dihydroxytetrahydrofuran-2-yl)methoxy)methyl)phosphonic acid] | ≤ 500 |
| CN(CC1CC1)c1nc(Cl)nc2c1cnn2[C@@H]1O[C@H](COCP(=O)(O)O)[C@@H](O)[C@H]1O [Example 72, ((((2R,3S,4R,5R)-5-(6-chloro-4-((cyclopropylmethyl)(methyl)amino)-1H-pyrazolo[3,4-d]pyrimidin-1-yl)-3,4-dihydroxytetrahydrofuran-2-yl)methoxy)methyl)phosphonic acid] | ≤ 500 |
| O=P(O)(O)COC[C@H]1O[C@@H](n2ncc3c(NC[C@H]4CCCO4)nc(Cl)nc32)[C@H](O)[C@@H]1O [Example 70, ((((2R,3S,4R,5R)-5-(6-chloro-4-((((R)-tetrahydrofuran-2-yl)methyl)amino)-1H-pyrazolo[3,4-d]pyrimidin-1-yl)-3,4-dihydroxytetrahydrofuran-2-yl)methoxy)methyl)phosphonic acid] | ≤ 500 |
| O=P(O)(O)COC[C@H]1O[C@@H](n2ncc3c(NCc4cccc5ncccc45)nc(Cl)nc32)[C@H](O)[C@@H]1O [Example 51, ((((2R,3S,4R,5R)-5-(6-chloro-4-((quinolin-5-ylmethyl)amino)-1H-pyrazolo[3,4-d]pyrimidin-1-yl)-3,4-dihydroxytetrahydrofuran-2-yl)methoxy)methyl)phosphonic acid] | ≤ 500 |
| O=P(O)(O)CS(=O)(=O)CC[C@H]1O[C@@H](n2ncc3c(NCC4CC4)nc(Cl)nc32)[C@H](O)[C@@H]1O [Example 88, (((2-((2R,3S,4R,5R)-5-(6-chloro-4-((cyclopropylmethy)amino)-1H-pyrazolo[3,4-d]pyrimidin-1-yl)-3,4-dihydroxytetrahydrofuran-2-yl)ethyl)sulfonyl)methyl)phosphonic acid] | > 1000 |
| CC(C)Nc1nc(Cl)nc2c1cnn2[C@@H]1O[C@H](COCP(=O)(O)O)[C@@H](O)[C@H]1O [Example 74, ((((2R,3S,4R,5R)-5-(6-chloro-4-(isopropylamino)-1H-pyrazolo[3,4-d]pyrimidin-1-yl)-3,4-dihydroxytetrahydrofuran-2-yl)methoxy)methyl)phosphonic acid] | ≤ 500 |
| Nc1nc(Cl)nc2c1cnn2[C@@H]1O[C@H](COCP(=O)(O)O)[C@@H](O)[C@H]1O [Example 57, ((((2R,3S,4R,5R)-5-(4-amino-6-chloro-1H-pyrazolo[3,4-d]pyrimidin-1-yl)-3,4-dihydroxytetrahydrofuran-2-yl)methoxy)methyl)phosphonic acid] | 500 to 1000 |
| O=P(O)(O)CS(=O)(=O)C[C@H]1O[C@@H](n2nnc3c(NCc4ccc(Cl)cc4)nc(Cl)nc32)[C@H](O)[C@@H]1O [Example 120, (((((2S,3S,4R,5R)-5-(5-chloro-7-((4-chlorobenzyl)amino)-3H[1,2,3]triazolo[4,5-d]pyrimidin-3-yl)-3,4-dihydroxytetrahydrofuran-2-yl)methyl)sulfonyl)methyl)phosphonic acid] | ≤ 500 |

Source: patent US11377469B2, “CD73 inhibitors” (ORIC Pharmaceuticals, Inc., priority 2017, dated 2022)
